SMILES strings stand for the structures.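 Each compound was tested at five concentrations against cells in 96-well plates for 48 hours. Here, GI50 denotes the concentration required for 50% inhibition of growth. TGI: concentration producing complete growth inhibition.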 Where only a bound is given, the exact number is not on record here.

Among the test systems are HCT-15 colon; MCF7 breast; SF-295 CNS; NCI/ADR-RES ovarian; NCI-H226 lung; TK-10 renal; SF-268 CNS; MOLT-4 leukemia; HCC-2998 colon; HOP-62 NSCLC.
Assay in all cases: growth of human tumour cells (NCI), 48 h

Take `CC(=O)Nc1ccc(S(=O)(=O)Nc2nnc(S(N)(=O)=O)s2)cc1`: the TGI with HCT-15 colon, in the assay on MCF7 breast, in the assay on SF-295 CNS, with NCI/ADR-RES ovarian, with NCI-H226 lung and in the assay with TK-10 renal was > 100 µM each time. Further, the TGI with SF-268 CNS, in the assay with MOLT-4 leukemia and with HCC-2998 colon was > 100 µM throughout.
On to `CCOC(=O)C1=CN=C2C(=O)N(c3ccccc3)N(C)C2(C)C1=N` (configuration not stated), for which the TGI in the assay on HCT-15 colon, in the assay with MCF7 breast, in the assay with SF-295 CNS, in the assay with NCI/ADR-RES ovarian, in the assay on NCI-H226 lung and in the assay with TK-10 renal was > 100 µM throughout. Further, the TGI with HCC-2998 colon was > 100 µM.
`CCNc1nc(N)c(C(=O)c2ccc(Cl)cc2)s1`: the TGI in the assay with HOP-62 NSCLC is > 100 µM; in the assay with HCT-15 colon it was > 100 µM; in the assay with MCF7 breast, > 100 µM; in the assay with NCI/ADR-RES ovarian, > 100 µM; with NCI-H226 lung it was 70.6 µM; with TK-10 renal, 54.4 µM. For the same molecule, the TGI in the assay with SF-268 CNS and with MOLT-4 leukemia was > 100 µM each time.
For `O=C1C=Cc2c(Cl)sc(Cl)c21`, the TGI in the assay on HOP-62 NSCLC was determined as 4.2 µM; in the assay on HCT-15 colon, 3.14 µM; in the assay on MCF7 breast it was 3.9 µM; in the assay with SF-295 CNS, 27.1 µM; with NCI/ADR-RES ovarian it was 5.32 µM; in the assay with NCI-H226 lung, 16.1 µM. Also, the TGI in the assay with TK-10 renal came to 4.39 µM; in the assay with SF-268 CNS, 3.58 µM; in the assay on HCC-2998 colon, 13.8 µM.
As to `Cc1oc2nc1C(=O)NCc1nc(cs1)C(=O)N[C@H](C(C)C)c1nc(cs1)C(=O)N[C@H]2C`, the TGI was > 100 µM with HOP-62 NSCLC; > 100 µM in the assay on HCT-15 colon; > 100 µM in the assay on MCF7 breast; 99.4 µM in the assay with SF-295 CNS; > 100 µM in the assay on NCI/ADR-RES ovarian; > 100 µM in the assay with NCI-H226 lung. Besides, the TGI with SF-268 CNS, with MOLT-4 leukemia and in the assay on HCC-2998 colon was > 100 µM in each case.
As to `CSc1nc2ccccc2c(=O)n1/N=C1\C(=O)N(CN2CCOCC2)c2ccc(Cl)cc21`, the TGI with HOP-62 NSCLC, in the assay with HCT-15 colon, in the assay on MCF7 breast, in the assay on SF-295 CNS, with NCI/ADR-RES ovarian and with NCI-H226 lung was > 100 µM throughout. The figures for the TGI with TK-10 renal, in the assay on SF-268 CNS and with MOLT-4 leukemia were 71.4 µM, > 100 µM and 42.8 µM, respectively.
`O=[N+]([O-])C(/C(Cl)=C(/Cl)N1CCOCC1)=C1\NCCO1`: the TGI in the assay on HOP-62 NSCLC, in the assay on HCT-15 colon, in the assay with MCF7 breast, in the assay on SF-295 CNS, in the assay with NCI/ADR-RES ovarian and in the assay with NCI-H226 lung was > 100 µM throughout. The TGI in the assay with SF-268 CNS, in the assay on MOLT-4 leukemia and with HCC-2998 colon was > 100 µM throughout.
Regarding `CC(=O)Nc1ccc2c(C(=O)O)c(C)c(=O)[nH]c2n1`, the TGI with HCT-15 colon, in the assay with MCF7 breast, with SF-295 CNS, in the assay on NCI/ADR-RES ovarian, in the assay on NCI-H226 lung and with TK-10 renal was > 100 µM each time. Further, the TGI in the assay with SF-268 CNS and in the assay on MOLT-4 leukemia was > 100 µM in each case.
As to `CN(C)N=Nc1ccc([N+](=O)[O-])cc1C(N)=O`, the TGI in the assay with HOP-62 NSCLC, in the assay on HCT-15 colon, in the assay with MCF7 breast, with SF-295 CNS, in the assay with NCI/ADR-RES ovarian and in the assay on NCI-H226 lung was > 100 µM in each case. The TGI in the assay on SF-268 CNS, in the assay with MOLT-4 leukemia and in the assay with HCC-2998 colon was > 100 µM in each case.
For the molecule `CC(C)(C)c1cc(C(O)(C(=O)O)C(=O)O)cc(C(C)(C)C)c1O`, the TGI in the assay on HOP-62 NSCLC, with HCT-15 colon, in the assay on MCF7 breast, with SF-295 CNS, with NCI/ADR-RES ovarian and in the assay on NCI-H226 lung was > 100 µM throughout. Further, the TGI in the assay with TK-10 renal, in the assay with SF-268 CNS and in the assay on MOLT-4 leukemia was > 100 µM each time.
Take `Cc1c(CNc2ccc(Cl)c(C(=O)NC(CC(=O)O)C(=O)O)c2)ccc2nc(N)nc(N)c12` (configuration not stated): the GI50 was 0.557 µM with HOP-62 NSCLC, > 1000 µM with NCI-H226 lung and 363 µM with TK-10 renal. Also, the TGI in the assay on HCT-15 colon, in the assay with MCF7 breast, with SF-295 CNS, in the assay with NCI/ADR-RES ovarian, in the assay with NCI-H226 lung and with TK-10 renal was > 1000 µM throughout. The TGI in the assay with SF-268 CNS and in the assay with MOLT-4 leukemia was > 1000 µM each time.
In the case of `CCSc1ncnc2c(C3OC(CO)C(O)C3O)nsc12` (configuration not stated), the TGI with HOP-62 NSCLC, in the assay on HCT-15 colon, in the assay on MCF7 breast, in the assay with SF-295 CNS, in the assay with NCI/ADR-RES ovarian and in the assay with NCI-H226 lung was > 100 µM in each case. For the same molecule, the TGI in the assay on SF-268 CNS, with MOLT-4 leukemia and with HCC-2998 colon was > 100 µM each time.
`Cc1cc2c(cc1-c1cc3c(cc1C)C(C(C)C)=C(O)C(=O)/C3=C\Nc1nc(-c3ccccc3)cs1)/C(=C/Nc1nc(-c3ccccc3)cs1)C(=O)C(O)=C2C(C)C`: the TGI in the assay with HOP-62 NSCLC is 31.7 µM; in the assay on HCT-15 colon, 58.4 µM; with MCF7 breast, 41.1 µM; in the assay with SF-295 CNS, 40.9 µM; in the assay with NCI/ADR-RES ovarian, 63.9 µM; with NCI-H226 lung, 58.4 µM. In addition, the TGI is 72 µM in the assay with SF-268 CNS and > 100 µM in the assay with MOLT-4 leukemia.
As to `COc1ccc2oc(S(=O)(=O)N3CC(CCl)c4ccc([N+](=O)[O-])cc43)cc2c1` (configuration not stated), the TGI in the assay on HCT-15 colon is 3.3 µM; in the assay on MCF7 breast, 14.4 µM; with SF-295 CNS, 0.196 µM; in the assay with NCI/ADR-RES ovarian it was 4.03 µM; in the assay on NCI-H226 lung it was 1.43 µM; with TK-10 renal, > 55.2 µM. For the same molecule, the TGI in the assay on SF-268 CNS was > 39.8 µM; in the assay with MOLT-4 leukemia, > 100 µM; with HCC-2998 colon, 2.62 µM.
On to `COc1cc2c(cc1OC)C1CN3C(=O)CCC3C(O)C1c1cc(OC)c(OC)cc1-2` (configuration not stated), for which the TGI with HOP-62 NSCLC, with HCT-15 colon, in the assay with MCF7 breast, in the assay with SF-295 CNS, in the assay with NCI/ADR-RES ovarian and in the assay on TK-10 renal was > 100 µM throughout. For the same molecule, the TGI with SF-268 CNS, in the assay with MOLT-4 leukemia and with HCC-2998 colon was > 100 µM in each case.

The record behind these values is PubChem BioAssay (NCI).
